Where two headings read alike, the source gives them in different places.
Legend:
E. coli = test: MIC against E. coli in presence of 50 % human serum; assay type: cell-based; details: Escherichia coli, read-out: MICEc 50%HS
E. coli DSM 1116 = test: Qualitative growth inhibition assay in presence of AlbAS; assay type: cell-based, Escherichia coli; details: for GIA: E. coli inhibition +AlbA: E. coli DSM 1116, 10 µM compound with equimolar AlbAS; for bioactivity in presence of AlbAS (in words): E. coli, equimolar purified AlbAS
Description: Finally, we investigated if synthetic variations of building block A are able to evade the effects of the resistance protein AlbA. Therefore, we carried out a qualitative growth inhibition assay with derivatives 4–24 in presence of an equimolar amount of purified AlbAS. After incubation of the cultures overnight, the growth of the bacteria was evaluated. The ability of AlbAS to sufficiently sequester an albicidin derivative from the supernatant allowed E. coli cells to accumulate in a visible cell pellet. Second, we performed a quantitative transcription‐activation reporter assay[22] to assess transcriptional regulation by AlbAL. The promoter sequence pAlbA was inserted into a reporter vector that encodes the ilux luminescence cassette.[22] The luminescence signals elicited by ligand binding of synthetic variations to AlbAL was compared and normalized to the signal induced by 2nd Gen albicidin 2 and are hereby referred to as relative transcription activation (TA^%). The combination of both assays prompted us to categorize the experimental outcomes (Figure 4) in four groups:
Figure 4 Characterization of AlbA resistance against derivatives 2, 4–24. GIA: Qualitative growth inhibition assay against E. coli DSM 1116. (−): Derivative unable to inhibit the growth of E. coli in presence of AlbAS. (+): Derivative inhibits growth of E. coli in presence of AlbAS. […] For details see SI Figure 9. Transcription activation (TA) assay: luminescence elicited by 2nd Gen albicidin 2 from the TA assay was normalized to 100 % and the luminescence signal of tested derivatives provided: relative luminescence [%]=luminescence [derivative]/luminescence [2]×100 %. Green bars indicate low relative luminescence (<40 %) and red bars indicate high relative luminescence (>50 %). Error bars show the standard deviations of triplicate measurements. TEXT PRINTED IN THE PICTURE: 2: E. coli inhibition +AlbA: − | 4: E. coli inhibition +AlbA: + | 9: E. coli inhibition +AlbA: + | 11: E. coli inhibition +AlbA: + | 12: E. coli inhibition +AlbA: + | 13: E. coli inhibition +AlbA: ~ | 14: E. coli inhibition +AlbA: − | 16: E. coli inhibition +AlbA: − | 17: E. coli inhibition +AlbA: − | 18: E. coli inhibition +AlbA: − | 19: E. coli inhibition +AlbA: − | 20: E. coli inhibition +AlbA: + | 21: E. coli inhibition +AlbA: − | 22: E. coli inhibition +AlbA: − | 23: E. coli inhibition +AlbA: − | 24: E. coli inhibition +AlbA: − […]
1.3 Resistance assessment against AlbA
E. coli strain DSM 1116 was used for all susceptibility testing. E. coli BL21 Star (DE3) cells (Invitrogen) were used for protein expression. LB medium (Lysogeny broth: 10 g/L peptone, 5 g/L yeast extract, 5 g/L NaCl) was used as broth or in agar plates for all experiments. Incubation steps took place at 37°C and 180 rpm shaking if not stated otherwise. Throughout the study, 2nd Gen albicidin 2 was used as albicidin standard due to its better stability, availability and similar activity compared to natural albicidin in presence of resistance factors.[3,4]
AlbA expression and purification
N-terminally His-tagged AlbA was expressed using a pET28a vector as described previously.[5] In brief, E. coli BL21(DE3) cells were transformed with pET28-AlbA plasmid and grown in LB medium with kanamycin. LB broth supplemented with 50 µg/mL kanamycin was inoculated from over-night cultures and grown at 37°C until an OD600 of 0.6 was reached. After induction with 0.2 mM isopropyl β-D-1-thiogalactopyranoside (IPTG) the proteins were expressed at 18°C for 20 h. The cells were harvested by centrifugation (4,000 x G, 20 min), resuspended in lysis buffer (50 mM Tris, pH 8.0, 500 mM NaCl, 10% glycerol) and processed in a cell disruptor (Constant Systems Ltd) at 25 kPsi before centrifugation at 50,000 x G, at 4°C for 45 min. The lysate was incubated with Pure Cube Ni-NTA agarose (Cube Biotech, Germany) at 4°C for 20 min while shaking. The slurry was transferred to empty gravity-flow […]

[1] = Reverse-phase HPLC retention time as estimate of lipophilicity; assay type: physicochemical; details: indicator of lipophilicity
Excerpt: As mentioned before, albicidin 1 is a rather hydrophobic compound and improving its aqueous solubility is desirable. The lipophilicity of drug molecules is commonly characterized by the octanol/water partition coefficient (logP). An alternative approach relies on the correlation between lipophilicity and the retention time (Rt) on a reverse‐phase HPLC column.[31] This approach works well if structurally related compounds are compared as is the case for this SAR study. Rt was thus used to estimate the hydrophilicity of albicidin 1 and its derivatives 2–24 (Table 1).[32]

[2] = E. coli in presence of 50 % human serum

SMILES	MIC (E. coli; [2]) [mg/L]	GIA: E. coli inhibition +AlbA (E. coli DSM 1116)	bioactivity in presence of AlbAS (in words) (E. coli DSM 1116)	Rt (retention time) [1] [min]	MIC (E. coli) [mg/L]
COc1c(NC(=O)c2ccc(NC(=O)c3ccc(NC(=O)[C@H](Cc4c[nH]nn4)NC(=O)c4ccc(NC(=O)c5ccc(C#N)cc5)cc4)cn3)c(OC)c2O)ccc(C(=O)O)c1O [compound 4]	1	+	has bioactivity	8.20	
COc1c(NC(=O)c2ccc(NC(=O)c3ccc(NC(=O)[C@H](Cc4c[nH]nn4)NC(=O)c4ccc(NC(=O)[C@@H](C)Oc5ccc(O)cc5)cc4)cn3)c(OC)c2O)ccc(C(=O)O)c1O [compound 9]	≥ 8	+	has bioactivity	7.78	
COc1c(NC(=O)c2ccc(NC(=O)c3ccc(NC(=O)[C@H](Cc4c[nH]nn4)NC(=O)c4ccc(NC(=O)c5ccc6ccccc6n5)cc4)cn3)c(OC)c2O)ccc(C(=O)O)c1O [compound 11]	2	+	highly bioactive	9.49	
COc1c(NC(=O)c2ccc(NC(=O)c3ccc(NC(=O)[C@H](Cc4c[nH]nn4)NC(=O)c4ccc(NC(=O)c5cc6ccccc6cn5)cc4)cn3)c(OC)c2O)ccc(C(=O)O)c1O [compound 12]		+	highly bioactive	8.74	1
COc1c(NC(=O)c2ccc(NC(=O)c3ccc(NC(=O)[C@H](Cc4c[nH]nn4)NC(=O)c4ccc(NC(=O)c5cnc6ccccc6c5)cc4)cn3)c(OC)c2O)ccc(C(=O)O)c1O [compound 13]			has bioactivity	8.07	
COc1c(NC(=O)c2ccc(NC(=O)c3ccc(NC(=O)[C@H](Cc4c[nH]nn4)NC(=O)c4ccc(NC(=O)c5ccc6ncccc6c5)cc4)cn3)c(OC)c2O)ccc(C(=O)O)c1O [compound 14]	4	−	deactivated	7.67	
COc1c(NC(=O)c2ccc(NC(=O)c3ccc(NC(=O)[C@H](Cc4c[nH]nn4)NC(=O)c4ccc(NC(=O)c5ccc6nc(C)ccc6c5)cc4)cn3)c(OC)c2O)ccc(C(=O)O)c1O [compound 16]		−	deactivated	6.94	
COc1c(NC(=O)c2ccc(NC(=O)c3ccc(NC(=O)[C@H](Cc4c[nH]nn4)NC(=O)c4ccc(NC(=O)c5c[nH]c6ccccc6c5=O)cc4)cn3)c(OC)c2O)ccc(C(=O)O)c1O [compound 17]		−	deactivated	7.98	
CCn1cc(C(=O)Nc2ccc(C(=O)N[C@@H](Cc3c[nH]nn3)C(=O)Nc3ccc(C(=O)Nc4ccc(C(=O)Nc5ccc(C(=O)O)c(O)c5OC)c(O)c4OC)nc3)cc2)c(=O)c2ccc(C)nc21 [compound 18]	8	−	deactivated	9.24	
CCn1cc(C(=O)Nc2ccc(C(=O)N[C@@H](Cc3c[nH]nn3)C(=O)Nc3ccc(C(=O)Nc4ccc(C(=O)Nc5ccc(C(=O)O)c(O)c5OC)c(O)c4OC)nc3)cc2)c(=O)c2cc3c(cc21)OCO3 [compound 19]		−	deactivated	8.45	
COc1c(NC(=O)c2ccc(NC(=O)c3ccc(NC(=O)[C@H](Cc4c[nH]nn4)NC(=O)c4ccc(NC(=O)c5cc(=O)c6cc(F)ccc6o5)cc4)cn3)c(OC)c2O)ccc(C(=O)O)c1O [compound 20]	8	+	highly bioactive	8.60	
COc1c(NC(=O)c2ccc(NC(=O)c3ccc(NC(=O)[C@H](Cc4c[nH]nn4)NC(=O)c4ccc(NC(=O)c5cc6cc(O)ccc6[nH]5)cc4)cn3)c(OC)c2O)ccc(C(=O)O)c1O [compound 21]	≥ 8	−	deactivated	7.50	
COc1c(NC(=O)c2ccc(NC(=O)c3ccc(NC(=O)[C@H](Cc4c[nH]nn4)NC(=O)c4ccc(NC(=O)c5ccc6ncsc6c5)cc4)cn3)c(OC)c2O)ccc(C(=O)O)c1O [compound 22]	0.5	−	deactivated	7.65	
COc1c(NC(=O)c2ccc(NC(=O)c3ccc(NC(=O)[C@H](Cc4c[nH]nn4)NC(=O)c4ccc(NC(=O)c5ccc6nc[nH]c6c5)cc4)cn3)c(OC)c2O)ccc(C(=O)O)c1O [compound 23]	≥ 8	−	deactivated	6.69	
COc1c(NC(=O)c2ccc(NC(=O)c3ccc(NC(=O)[C@H](Cc4c[nH]nn4)NC(=O)c4ccc(NC(=O)c5ccc6nn[nH]c6c5)cc4)cn3)c(OC)c2O)ccc(C(=O)O)c1O [compound 24]	2	−	deactivated	7.16	
